Experimental data as given in patent US20040072368A1, “Lipoprotein receptor” (priority 2002, published 2004).

Columns and labels:
[1] = test system: EGF receptor; assay: EGF receptor internalisation by flow cytometry; type: cell-based, human; conditions: HepG2, 10 min pre-incubation, 10 μg/ml free-apoA-I or 100 nM ADP
Description: Panel 4. Internalisation of EGF receptor by HepG2 cells. Cells are pre-incubated for 10 min in serum-free medium with (J) or without (K) […] EGF, or with 10 μg/ml free-apoA-I (L), 100 nM ADP (M). The amount of EGF receptor is measured by Flow Cytometry using anti-EGF receptor antibody. As a control experiment for the efficacy of EGF receptor antibody, isotypic IgG are used (I). Results are expressed as the mean relative cell fluorescence and receptor internalisation is related to lower fluorescence.
For analysis of the cell surface EGF receptor, HepG2 cells are preincubated in medium with or without 20 nM EGF for 10 min at 37° C. For flow cytometry analysis, HepG2 and CHO cells are detached by incubation with Ca2+, Mg2+free PBS containing 2 mM EDTA, pH 7.4, fixed in 3% paraformaldehyde and pelleted in a microfuge. Cells are incubated at 20° C. for 1 h in PBS, pH 7.4 containing 1% BSA with either mouse monoclonal antibodies against the human β-subunit of ATP synthase, the human cytochrome oxidase subunit I, the human EGF receptor or against isotypic control IgG. Cells are washed in PBS/BSA 1% and incubated at 20° C. for 30 min with goat […] IgG conjugated to fluorescein isothiocyanate. After a final wash, cells are pelleted and resuspended in PBS/BSA 1% at a density of 1×10^6 cells/ml. The mean relative fluorescence after excitation at a wavelength of 488 nm is determined for each sample on a Coulter XL 4C flow cytometer and analysed with CELLQUEST software (Becton-Dickenson).

[2] = test system: HepG2 cells; assay: LDL internalisation assay; type: cell-based, human; conditions: 10 μg/ml free-apoA-I or 100 nM ADP, 10 min at 37° C.
Description: (§1) Panel 1, 2 and 3. TG-HDL2 and LDL internalization by HepG2 cells. Cells are incubated for 10 min at 37° C. with 75 μg/ml of ^125I-TG-HDL2 (panels 1 and 3), TG-HDL2 labelled with ^3H-cholesteryl ester (panel 1 “chol”) or ^1251-LDL (panel 2). Alternatively, 10 μg/ml free-apoA-I (A, G), 100 nM ADP (B, H), both free-apoA-I and ADP at the same concentrations as above (C), 100 nM ATP (D), 0.2 U/ml apyrase (E), 100 nM EGF (F), or increasing concentrations of 2MeS-ADP (▪) and ATPγS (□) (panel 3) are added to the incubation medium. Results are expressed as the percentage of stimulation related to the value of internalisation obtained without addition of any compound (corresponding to a value of 400 ng TG-HDL2/mg of cell protein). The same experiments are performed on IHH cells with similar results (data not shown).
Cells are washed three times and pre-incubated for 30 min at 37° C. in serum free DMEM. ^125I triglyceride rich-HDL2 (75 μg/ml) are added on the cells and incubated at 37° C. for various time. […] The radioactivity internalised into the cells and the protein content is determined as in the competition assays. Non-specific internalisation is analysed in the presence of an excess of 600 μg/ml of HDL3. Results are expressed as the percentage of stimulation related to the value of internalisation obtained without addition of any compound. […]

[3] = test system: HepG2 cells and IHH; assay: Cholesterol efflux; type: cell-based, human; conditions: range of 1 nM to 10 μM
[4] = test system: HepG2 cells; assay: TG-HDL2 internalisation assay; type: cell-based, human; conditions: for effect on internalisation of 125I-TG-HDL2: 75 μg/ml 125I-TG-HDL2, 10 min at 37° C., 10 μg/ml free-apoA-I, 100 nM ADP, 100 nM ATP, 0.2 U/ml apyrase, 100 nM EGF
Description: as §1
HepG2 cells are incubated for 10 min at 37° C. in DMEM pH 6.6 with 75 μg/ml of ^125I-TGHDL 2 and in the presence of increasing concentrations of IF, without (panel A) or with (panel B) free-apoA-I (10 μg/ml). Results are expressed as the percentage of stimulation as referred to the value of internalisation obtained without addition of any compound (corresponding to a value of 400 ng TG-HDL2/mg of cell protein).
Cells are washed three times and pre-incubated for 30 min at 37° C. in serum free DMEM. ^125I triglyceride rich-HDL2 (75 μg/ml) are added on the cells and incubated at 37° C. for various time. Depending on the experiment, free apolipoprotein A-I (10 μg/ml) or other compounds, are added to the incubation medium. At each incubation time, cells are washed with cold DMEM and the release of radioactive ligands associated to the cell surface is performed at 4° C., for 90 min in DMEM. The radioactivity internalised into the cells and the protein content is determined as in the competition assays. Non-specific internalisation is analysed in the presence of an excess of 600 μg/ml of HDL3. Results are expressed as the percentage of stimulation related to the value of internalisation obtained without addition of any compound. The same method is used for the measurement of LDL internalisation.

[5] = target: T1, cell surface ATP synthase (Homo sapiens, UniProt P06576); assay: Cell surface ADP generation assay (ATP hydrolysis), HPLC/TLC; type: cell-based; conditions: HepG2
T1 construct: endogenous in cells; host or cells: HepG2
Description: ^32Pi and ADP (panels A and B) or [α-32P] ATP (panels C, D, E and F) are added to the HepG2 cell medium as described in Experimental Procedures, and the cells are incubated for 10 min at 37° C. with 10 μg/ml apoA-I (panels B and D), 100 nM IF1 (panel E), or both IF1 […] and apoA-I at the same concentrations as above (panel F). Control experiments are performed with neither apo AI nor IF1 added into the cell medium (panel A and C). Supernatants are recovered and analysed by HPLCs.
Confluent HepG2 in 6-well plates are washed in DMEM, then incubated at 37° C. for 10 min in DMEM pH 6.6 with 0.1 μCi [α-32P] ATP for ADP generation assay, or with 0.1 μCi 32Pi and ADP (100 nM final) for ATP generation assay. Depending on the experiment, IF1 (100 nM final) or apoA-I (10 μg/ml final) are added in the reaction mixture. Supernatants are removed and analysed using two different systems: 1) by HPLC coupled to a radioactivity detector on a Whatman Partisphere 5 SAX column (Whatman International Ltd., UK) as described previously (13); calibration is done with radiolabelled nucleotides. 2) by thin layer chromatography in the solvent NaCl 2.4%/NH4OH/H2O/MeOH (12.5/15/27.5/50, v/v); radioactive spots are counted by liquid scintillation.

[6] = test system: rat liver; assay: TG-HDL2 internalisation by perfused rat liver (in situ); type: in vivo
Description: The liver from male Whistar rats (7-8 weeks old) were perfused in situ during 45 minutes at 37° C. in Ringer medium (pH 6.8) with 35 μg/ml of 1251-TG-HDL2 with or without 1 μM IF1. Livers were then extensively washed at 4° C. and radioactivity counted. n=7 per group. Values represent means±SEM, with p<0.02 (unpaired t-test). Control fluorescence-assisted flow cytometry experiments have shown the presence of both the Band a-chain ATP synthase at the cell surface of isolated rat hepatocytes (not shown).

T1 sequence (P06576 48-529): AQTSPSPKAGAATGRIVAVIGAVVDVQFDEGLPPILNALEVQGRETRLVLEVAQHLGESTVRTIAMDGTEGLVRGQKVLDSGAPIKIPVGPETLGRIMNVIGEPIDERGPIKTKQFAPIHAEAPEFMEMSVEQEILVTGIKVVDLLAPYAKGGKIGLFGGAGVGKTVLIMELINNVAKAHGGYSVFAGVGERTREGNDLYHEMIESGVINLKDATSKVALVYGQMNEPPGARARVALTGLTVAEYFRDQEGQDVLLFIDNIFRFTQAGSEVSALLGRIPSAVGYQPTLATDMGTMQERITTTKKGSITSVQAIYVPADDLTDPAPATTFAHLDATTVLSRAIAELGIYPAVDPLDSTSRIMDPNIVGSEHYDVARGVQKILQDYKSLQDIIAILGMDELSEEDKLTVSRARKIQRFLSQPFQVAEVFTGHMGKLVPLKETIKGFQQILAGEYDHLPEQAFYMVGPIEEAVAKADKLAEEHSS
T1 sequence (P25705 44-553 partner): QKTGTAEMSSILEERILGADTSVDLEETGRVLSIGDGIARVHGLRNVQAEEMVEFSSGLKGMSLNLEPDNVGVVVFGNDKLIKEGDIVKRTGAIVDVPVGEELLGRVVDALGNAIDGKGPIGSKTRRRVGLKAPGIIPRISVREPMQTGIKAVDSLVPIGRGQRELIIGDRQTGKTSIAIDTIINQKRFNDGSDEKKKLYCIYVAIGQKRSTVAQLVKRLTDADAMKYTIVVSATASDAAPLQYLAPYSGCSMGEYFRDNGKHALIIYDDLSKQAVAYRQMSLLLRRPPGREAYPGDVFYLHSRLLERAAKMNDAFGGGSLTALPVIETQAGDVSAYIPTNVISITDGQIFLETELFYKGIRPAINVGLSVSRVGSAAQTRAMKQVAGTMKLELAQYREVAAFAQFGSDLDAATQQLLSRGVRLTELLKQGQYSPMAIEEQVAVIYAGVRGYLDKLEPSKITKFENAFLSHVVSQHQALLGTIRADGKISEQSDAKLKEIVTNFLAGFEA
T1 sequence (P36542 26-298 partner): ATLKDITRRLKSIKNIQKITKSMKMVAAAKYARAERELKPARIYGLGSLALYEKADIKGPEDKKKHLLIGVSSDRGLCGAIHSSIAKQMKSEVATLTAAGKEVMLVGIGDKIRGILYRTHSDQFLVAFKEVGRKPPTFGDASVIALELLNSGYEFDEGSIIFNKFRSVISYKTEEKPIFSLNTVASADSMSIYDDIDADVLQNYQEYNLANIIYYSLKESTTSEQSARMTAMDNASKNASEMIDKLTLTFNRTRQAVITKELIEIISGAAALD
T1 sequence (P30049 23-168 partner): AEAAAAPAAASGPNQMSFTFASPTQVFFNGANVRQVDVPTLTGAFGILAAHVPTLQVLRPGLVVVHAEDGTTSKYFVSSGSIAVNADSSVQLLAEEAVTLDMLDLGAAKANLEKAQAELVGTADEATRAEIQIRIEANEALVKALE
T1 sequence (P56381 2-51 partner limits assumed): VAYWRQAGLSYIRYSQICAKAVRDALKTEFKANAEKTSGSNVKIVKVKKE

Nc1ncnc2c1ncn2[C@@H]1O[C@H](COP(=O)(O)OP(=O)(O)O)[C@@H](O)[C@H]1O [ADP, reference compound]
number of EGF-R at the cell surface [1]: neither free apoA-I (FIG. 6-4L) nor ADP (FIG. 6-4M) are able to reduce | stimulation of endocytosis of 125I-labeled LDL [2]: no stimulation | influence on cholesterol efflux [3]: no influence | effect on internalisation of 125I-TG-HDL2 [4]: stimulates

Nc1ncnc2c1ncn2[C@@H]1O[C@H](COP(=O)(O)OP(=O)(O)OP(O)(O)=S)[C@@H](O)[C@H]1O [ATPγS]
stimulation of TG-HDL2 endocytosis ([4]; ATPγS at 10 μM): 15% | effect on TG-HDL2 endocytosis ([4]; ATPγS at low concentrations): weak effect

apyrase
effect on internalisation of 125I-TG-HDL2 [4]: completely abolishes

EGF: known to induce endocytosis of the EGF receptor (NSDSECPLSHDGYCLHDGVCMYIEALDKYACNCVVGYIGERCQYRDLKWWELR; Epidermal growth factor; UniProt P01133 971-1023, looked up)
number of EGF-R at the cell surface [1]: strongly reduces | effect on internalisation of 125I-TG-HDL2 [4]: does not stimulate

IF1: natural inhibitor protein of mitochondrial F1-ATPase, inhibits the hydrolytic activity of the ATP synthase
decrease of [α-32P]-ADP generated as compared to control ([5]; 100 nM IF1, 10 min at 37° C.): 48% | effect on the free-apoA-I stimulation of ATP hydrolysis ([5]; 100 nM IF1 plus 10 μg/ml apoA-I, 10 min at 37° C.): could inhibit the stimulatory effect | influence on cholesterol efflux [3]: no influence | TG-HDL2 internalisation by perfused rat liver ([6]; 1 μM IF1, 35 μg/ml 125I-TG-HDL2, 45 minutes at 37° C., means±SEM, n=7): 2.597 ± 1.026 μgTG-HDL2/g of liver | decrease of TG-HDL2 internalisation by the liver ([6]; perfused rat liver, 45 min, 1 μM IF1): up to 45% | effect on stimulation of TG-HDL2 endocytosis by free-apoA-I ([4]; higher concentrations of IF1, with free-apoA-I 10 μg/ml, DMEM pH 6.6): completely abolish | effect on TG-HDL2 internalisation (HDL endocytosis) ([4]; increasing concentrations of IF1, without free-apoA-I, DMEM pH 6.6, 10 min at 37° C.): dramatic decrease

Nc1ncnc2c1ncn2[C@@H]1O[C@H](COP(=O)(O)OP(=O)(O)OP(=O)(O)O)[C@@H](O)[C@H]1O [ATP]
effect on internalisation of 125I-TG-HDL2 [4]: small stimulation

CSc1nc(N)c2ncn([C@@H]3O[C@H](COP(=O)(O)OP(=O)(O)O)[C@@H](O)[C@H]3O)c2n1 [2MeS-ADP]
effect on TG-HDL2 endocytosis ([4]; 2MeS-ADP at 10 to 100 nM): stimulatory effect | effect on TG-HDL2 endocytosis ([4]; 2MeS-ADP at higher concentrations (1 μM to 10 μM)): inhibition of endocytosis
